Measured values published in ChEMBL document CHEMBL4261613, “Discovery of a potent orally bioavailable retinoic acid receptor-related orphan receptor-gamma-t (RORγt) inhibitor, S18-000003” (Bioorg Med Chem Lett, 2018).
Converted amounts (≈) assume the structure as drawn.

What was measured:
[1] = molecular target: T1, Nuclear receptor ROR-gamma (Mus musculus, UniProt P51450); test: (§1) Transrepression of recombinant mouse GAL4-DBD fused RORgammat LBD expressed in HEK293 cells after 20 hrs by luciferase reporter gene assay; format: cell-based
T1 sequence (P51450 whole entry): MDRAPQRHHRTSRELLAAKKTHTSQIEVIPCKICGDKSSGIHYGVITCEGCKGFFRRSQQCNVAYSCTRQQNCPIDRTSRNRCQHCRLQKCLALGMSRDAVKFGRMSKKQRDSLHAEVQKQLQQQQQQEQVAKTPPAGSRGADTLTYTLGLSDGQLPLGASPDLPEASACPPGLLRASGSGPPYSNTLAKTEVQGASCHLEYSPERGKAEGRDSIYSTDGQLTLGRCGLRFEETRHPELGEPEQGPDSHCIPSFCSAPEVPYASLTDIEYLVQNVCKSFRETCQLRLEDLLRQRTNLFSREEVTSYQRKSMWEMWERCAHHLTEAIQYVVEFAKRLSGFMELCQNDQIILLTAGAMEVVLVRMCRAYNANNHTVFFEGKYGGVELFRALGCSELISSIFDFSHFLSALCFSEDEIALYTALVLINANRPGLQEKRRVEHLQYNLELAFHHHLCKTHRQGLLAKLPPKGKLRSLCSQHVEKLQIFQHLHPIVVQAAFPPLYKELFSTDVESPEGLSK

[2] = molecular target: T2, Nuclear receptor ROR-gamma (Mus musculus) (UniProt P51450); test: as §1; format: cell-based
T2 sequence (whole entry): T1 sequence (P51450 whole entry)

[3] = molecular target: T3, Nuclear receptor ROR-gamma (Homo sapiens, UniProt P51449); test: Displacement of [3H]-Digoxin from recombinant human GST-fused RORgammat LBD after 1 to 4 hrs by scintillation counting method
T3 sequence (P51449 whole entry): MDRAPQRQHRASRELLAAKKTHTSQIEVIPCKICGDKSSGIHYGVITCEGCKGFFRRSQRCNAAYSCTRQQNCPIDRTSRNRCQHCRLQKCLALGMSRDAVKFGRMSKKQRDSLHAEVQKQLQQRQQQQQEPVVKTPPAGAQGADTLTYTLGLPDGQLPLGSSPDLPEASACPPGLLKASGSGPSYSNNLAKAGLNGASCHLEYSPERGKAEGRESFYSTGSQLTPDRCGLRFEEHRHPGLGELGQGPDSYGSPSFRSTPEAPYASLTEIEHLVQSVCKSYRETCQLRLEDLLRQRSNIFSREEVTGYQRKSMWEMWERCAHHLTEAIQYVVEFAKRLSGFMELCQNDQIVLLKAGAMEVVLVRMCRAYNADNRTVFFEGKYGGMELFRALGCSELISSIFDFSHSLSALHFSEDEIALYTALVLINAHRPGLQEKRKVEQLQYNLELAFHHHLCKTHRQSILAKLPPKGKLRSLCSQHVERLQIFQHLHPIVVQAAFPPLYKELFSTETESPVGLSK

[4] = molecular target: T3, Nuclear receptor ROR-gamma; test: (§2) Transrepression of recombinant human GAL4-DBD fused RORgammat LBD expressed in HEK293 cells after 20 hrs by luciferase reporter gene assay; format: cell-based
[5] = molecular target: T4, Nuclear receptor ROR-gamma (Homo sapiens) (UniProt P51449); test: as §2; format: cell-based
T4 sequence (whole entry): T3 sequence (P51449 whole entry)

[6] = Solubility of the compound in KH2PO4/Na2HPO4 buffer at pH 6.8 by shake-flask method; format: physicochemical
[7] = Stability in human liver microsomes assessed as parent compound remaining after 2 hrs by LC-MS/MS analysis; format: ADME, microsome; settings: read-out: Stability
[8] = Solubility of the compound in NaCl/HCl buffer at pH 1.2 by shake-flask method; format: physicochemical
[9] = Stability in rat liver microsomes assessed as parent compound remaining after 2 hrs by LC-MS/MS analysis; format: ADME, microsome; settings: read-out: Stability
[10] = molecular target: T1, Nuclear receptor ROR-gamma; test: Transrepression of RORgammat in anti-CD3/CD28 stimulated C57BL/6 mouse CD4-positive T cells assessed as suppression of T cell differentiation to Th17 cells by measuring reduction in IL-17A level after 4 days by ELISA

SMILES	IC50 [1]	Efficacy [2]	IC50 [3]	IC50 [4]	Efficacy [5]	solubility thermodynamic [6]	remaining at 2 h [7]	solubility thermodynamic [8]	remaining at 2 h [9]	IC50 [10]
CCS(=O)(=O)c1ccc(CC(=O)Nc2ccc(C(C)(C)C(=O)N(C)c3ccccc3)cc2)cc1	330 nM	76%	< 30 nM	14 nM	93%	–	–	–	–	–
CCS(=O)(=O)c1ccc(CC(=O)Nc2ccc(C(C)(C)C(=O)N3CCCCC3)cc2)cc1	> 10000 nM	50%	36 nM	430 nM	91%	–	–	–	–	–
CCOC(=O)C(C)(C)c1ccc(NC(=O)Cc2ccc(S(=O)(=O)CC)cc2)cc1	3100 nM	77%	64 nM	400 nM	93%	–	–	–	–	–
CCS(=O)(=O)c1ccc(CC(=O)Nc2ccc(C(C)(C)C(=O)N3CCc4ccccc43)cc2)cc1	110 nM	87%	< 30 nM	10 nM	93%	–	–	–	–	–
CCS(=O)(=O)c1ccc(CC(=O)Nc2ccc(C(C)(C)C(=O)N3CCC3)cc2)cc1	> 10000 nM	52%	< 30 nM	180 nM	90%	–	–	–	–	–
CCS(=O)(=O)c1ccc(CC(=O)Nc2ccc(C(C)(C)C(=O)N3Cc4ccccc4C3)cc2)cc1	1900 nM	84%	< 30 nM	260 nM	92%	–	–	–	–	–
CCS(=O)(=O)c1ccc(CC(=O)Nc2ccc(C(C)(C)C(=O)N(C)C)cc2)cc1	> 10000 nM	51%	30 nM	370 nM	89%	–	–	–	–	–
CCS(=O)(=O)c1ccc(CC(=O)Nc2ccc(C(C)(C)C(=O)Nc3ccccc3C)cc2)cc1	6800 nM	57%	–	140 nM	93%	–	24%	–	6%	–
CCS(=O)(=O)c1ccc(CC(=O)Nc2ccc(C(C)(C)C(=O)N3CC4(CCC4)C3)cc2)cc1	10000 nM	55%	33 nM	470 nM	89%	–	–	–	–	–
CCS(=O)(=O)c1ccc(CC(=O)Nc2ccc(C(C)(C)C(=O)Nc3ccccc3)cc2)cc1	470 nM	69%	< 30 nM	14 nM	93%	26.6 µM (≈ 12.4 µg/mL)	8.5%	46.9 µM (≈ 21.8 µg/mL)	30%	480 nM

Other lines, results leading:

IC50 [1]	Efficacy [2]	IC50 [3]	IC50 [4]	Efficacy [5]	solubility thermodynamic [6]	remaining at 2 h [7]	solubility thermodynamic [8]	remaining at 2 h [9]	IC50 [10]	SMILES
1300 nM	73%	–	40 nM	93%	> 50 µM	60%	> 50 µM	36%	–	CCS(=O)(=O)c1ccc(CC(=O)Nc2ccc(C(C)(C)C(=O)Nc3ccccn3)cc2)cc1
290 nM	91%	–	40 nM	97%	25 µM (≈ 12.3 µg/mL)	92%	47 µM (≈ 23.1 µg/mL)	72%	–	CCS(=O)(=O)c1ccc(CC(=O)Nc2ccc(C(C)(C)C(=O)Nc3cc(C#N)ccn3)cc2)cc1
100 nM	86%	–	8.2 nM	95%	4.7 µM (≈ 2.35 µg/mL)	40%	> 50 µM	8.1%	–	CCS(=O)(=O)c1ccc(CC(=O)Nc2ccc(C(C)(C)C(=O)Nc3cc(Cl)ccn3)cc2)cc1
> 10000 nM	47%	–	1800 nM	87%	> 50 µM	4.3%	> 50 µM	25%	–	CCS(=O)(=O)c1ccc(CC(=O)Nc2ccc(C(C)(C)C(=O)Nc3ccncc3)cc2)cc1
1800 nM	73%	–	95 nM	91%	–	97%	–	73%	1300 nM	CCS(=O)(=O)c1ccc(CC(=O)Nc2ccc(C(C)(C)C(=O)Nc3ccc(F)cc3F)cc2)cc1
78 nM	94%	–	25 nM	94%	0.5 µM (≈ 0.267 µg/mL)	36%	26 µM (≈ 13.9 µg/mL)	23%	–	CCS(=O)(=O)c1ccc(CC(=O)Nc2ccc(C(C)(C)C(=O)Nc3cc(C(F)(F)F)ccn3)cc2)cc1
4500 nM	63%	–	150 nM	93%	–	–	–	–	–	CCS(=O)(=O)c1ccc(CC(=O)Nc2ccc(C(C)(C)C(=O)Nc3cccnc3)cc2)cc1
> 10000 nM	37%	–	310 nM	92%	> 50 µM	93%	> 50 µM	80%	–	CCS(=O)(=O)c1ccc(CC(=O)Nc2ccc(C(C)(C)C(=O)Nc3ncccc3F)cc2)cc1
320 nM	86%	–	31 nM	94%	> 50 µM	69%	> 50 µM	47%	–	CCS(=O)(=O)c1ccc(CC(=O)Nc2ccc(C(C)(C)C(=O)Nc3cc(F)ccn3)cc2)cc1
260 nM	84%	–	9.8 nM	94%	–	2.7%	–	24%	290 nM	CCS(=O)(=O)c1ccc(CC(=O)Nc2ccc(C(C)(C)C(=O)Nc3cccc(F)c3)cc2)cc1
5400 nM	66%	–	500 nM	90%	0.6 µM (≈ 0.32 µg/mL)	74%	1.1 µM (≈ 0.587 µg/mL)	71%	–	CCS(=O)(=O)c1ccc(CC(=O)Nc2ccc(C(C)(C)C(=O)Nc3cccc(C(F)(F)F)n3)cc2)cc1
100 nM	76%	–	4.4 nM	93%	–	67%	–	19%	100 nM	CCS(=O)(=O)c1ccc(CC(=O)Nc2ccc(C(C)(C)C(=O)Nc3ccccc3F)cc2)cc1
